Test results published in patent publication US9499538B2, “Estrogen receptor modulators and uses thereof” (Seragon Pharmaceuticals, Inc., priority 2012, dated 2016).
pIC50: −log10 of the molar value.

What was measured:
[1] = tested on: MCF-7 cells; assay: Breast Cancer Cell Viability Assays (MCF-7, CellTiter-Glo); assay type: cell-based; details: 5 days' compound exposure; for pIC50: Homo sapiens, MCF7, 120 h
Method in brief: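 MCF-7 cells (320/well, RPMI with 10% FBS) exposed for 5 days to an eleven-point semilog series, 0.3–0.000003 μM final. Viability read by CellTiter-Glo luminescence, expressed as background-corrected percent of untreated cells.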

[2] = target: T1, ER-α in MCF-7 cells (Homo sapiens, UniProt P03372); assay: Breast Cancer Cell ER-α In Cell Western Assay (SP1); assay type: cell-based; details: 4 or 24 hr post compound addition; for Emax: MCF7, SP1 antibody, read-out: ER-α In Cell Western Assay (SP1) Max Response; for DC50: SP1 antibody, read-out: ER-α In Cell Western Assay (SP1) IC50
T1 construct: endogenous in cells; host or cells: MCF-7
T1 sequence (P03372 1-595): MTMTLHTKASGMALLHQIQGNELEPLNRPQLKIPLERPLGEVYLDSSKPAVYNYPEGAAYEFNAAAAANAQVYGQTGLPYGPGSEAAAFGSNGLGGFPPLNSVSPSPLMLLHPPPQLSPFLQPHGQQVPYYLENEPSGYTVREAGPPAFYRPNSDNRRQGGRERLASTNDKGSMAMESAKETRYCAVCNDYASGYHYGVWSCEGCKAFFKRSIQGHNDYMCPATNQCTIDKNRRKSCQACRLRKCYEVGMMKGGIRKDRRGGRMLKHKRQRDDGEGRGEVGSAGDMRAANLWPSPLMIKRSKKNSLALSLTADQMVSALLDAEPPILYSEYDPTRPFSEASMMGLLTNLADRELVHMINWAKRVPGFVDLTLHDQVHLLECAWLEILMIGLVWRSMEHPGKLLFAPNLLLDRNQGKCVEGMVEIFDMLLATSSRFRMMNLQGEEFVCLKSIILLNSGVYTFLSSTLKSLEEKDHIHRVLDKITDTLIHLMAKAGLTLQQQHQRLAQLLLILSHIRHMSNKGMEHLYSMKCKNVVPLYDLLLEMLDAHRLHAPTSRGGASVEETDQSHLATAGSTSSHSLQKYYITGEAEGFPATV
Method in brief: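 MCF-7 cells in charcoal-stripped FBS medium, treated with 11-point semilog dilutions (0.3–0.000003 μM final) for 4 or 24 h. Fixed cells immunostained with SP1 antibody (800 nm) and DRAQ5 DNA (700 nm); ER/DNA ratio expressed as % of untreated cells.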

pIC50 [1]	Emax [2] [%]	DC50 [2] [µM]	Compound	MCF7 Viability Assay Max Response [1]
≥ 7.00	≥ 40	≤ 0.1	O=C(O)/C=C/c1ccc(/C(=C(\c2ccncc2Cl)C2CCC2)c2coc3c(O)cccc23)cc1 [Example 213, (E)-3-(4-((E)-2-(3-Chloropyridin-4-yl)-2-cyclobutyl-1-(7-hydroxybenzofuran-3-yl)vinyl)phenyl)acrylic acid]	++ (++ = a single % value ≧ 40%)
< 7.00	≥ 40	> 0.1	O=C(O)/C=C/c1ccc(/C(=C(\c2ccnc(O)c2)C2CCC2)c2ccc3[nH]nc(F)c3c2)cc1 [Example 214, (E)-3-(4-((E)-2-Cyclobutyl-1-(3-fluoro-1H-indazol-5-yl)-2-(2-hydroxypyridin-4-yl)vinyl)phenyl)acrylic acid]	+ (+ = a single % value < 40%)
≥ 7.00	≥ 40	≤ 0.1	Fc1n[nH]c2ccc(/C(=C(/c3ccccc3)C3CCC3)c3ccc(/C=C/c4ccccn4)cc3)cc12 [Example 215]	++ (++ = a single % value ≧ 40%)
≥ 7.00	≥ 40	≤ 0.1	COc1ccc(/C(=C(\c2ccc(/C=C/C(=O)O)cc2)c2ccc3[nH]ncc3c2)C2CCC2)c(Cl)c1 [Example 216, (E)-3-(4-((E)-2-(2-Chloro-4-methoxyphenyl)-2-cyclobutyl-1-(1H-indazol-5-yl)vinyl)phenyl)acrylic acid]	++ (++ = a single % value ≧ 40%)
≥ 7.00	≥ 40	≤ 0.1	Cc1cc(CO)ccc1/C(=C(\c1ccc(/C=C/C(=O)O)cc1)c1ccc2[nH]nc(F)c2c1)C1CCC1 [Example 217, (E)-3-(4-((E)-2-Cyclobutyl-1-(3-fluoro-1H-indazol-5-yl)-2-(4-(hydroxymethyl)-2-methylphenyl)vinyl)phenyl)acrylic acid]	++ (++ = a single % value ≧ 40%)
≥ 7.00	≥ 40	≤ 0.1	N#Cc1ccc(/C(=C(\c2ccc(/C=C/C(=O)O)cc2)c2ccc3scnc3c2)C2CCC2)c(Cl)c1 [Example 218, (E)-3-(4-((E)-1-(Benzo[d]thiazol-5-yl)-2-(2-chloro-4-cyanophenyl)-2-cyclobutylvinyl)phenyl)acrylic acid]	++ (++ = a single % value ≧ 40%)
≥ 7.00	≥ 40	≤ 0.1	N#Cc1cc(Cl)ccc1/C(=C(\c1ccc(/C=C/C(=O)O)cc1)c1ccc2scnc2c1)C1CCC1 [Example 219, (E)-3-(4-((E)-1-(Benzo[d]thiazol-5-yl)-2-(4-chloro-2-cyanophenyl)-2-cyclobutylvinyl)phenyl)acrylic acid]	++ (++ = a single % value ≧ 40%)
≥ 7.00	≥ 40	≤ 0.1	O=C(O)/C=C/c1ccc(/C(=C(\c2ccc(Cl)cc2Cl)C2CCC2)c2ccc3nccn3c2)cc1 [Example 220, (E)-3-(4-((E)-2-Cyclobutyl-2-(2,4-dichlorophenyl)-1-(imidazo[1,2-a]pyridin-6-yl)vinyl)phenyl)acrylic acid]	++ (++ = a single % value ≧ 40%)
≥ 7.00	≥ 40	≤ 0.1	O=C(O)/C=C/c1ccc(/C(=C(\c2ccc(F)cc2C(F)(F)F)C2CCC2)c2ccc3nccn3c2)cc1 [Example 221, (E)-3-(4-((E)-2-Cyclobutyl-2-(4-fluoro-2-(trifluoromethyl)phenyl)-1-(imidazo[1,2-a]pyridin-6-yl)vinyl)phenyl)acrylic acid]	++ (++ = a single % value ≧ 40%)
≥ 7.00	≥ 40	≤ 0.1	N#Cc1c(/C(=C(/c2ccc(F)cc2Cl)C2CC2)c2ccc(/C=C/C(=O)O)cc2)ccc2[nH]nc(F)c12 [Example 222, (E)-3-(4-((E)-2-(2-Chloro-4-fluorophenyl)-1-(4-cyano-3-fluoro-1H-indazol-5-yl)-2-cyclopropylvinyl)phenyl)acrylic acid]	++ (++ = a single % value ≧ 40%)
≥ 7.00	≥ 40	≤ 0.1	O=C(O)/C=C/c1ccc(/C(=C(\c2ccc(Cl)cc2C(F)(F)F)C2CCC2)c2ccc3nccn3c2)cc1 [Example 223, (E)-3-(4-((E)-2-(4-Chloro-2-(trifluoromethyl)phenyl)-2-cyclobutyl-1-(imidazo[1,2-a]pyridin-6-yl)vinyl)phenyl)acrylic acid]	++ (++ = a single % value ≧ 40%)
≥ 7.00	≥ 40	≤ 0.1	N#Cc1c(/C(=C(/c2ccc(F)cc2Cl)C2CCC2)c2ccc(/C=C/C(=O)O)cc2)ccc2nccn12 [Example 224, (E)-3-(4-((E)-2-(2-Chloro-4-fluorophenyl)-1-(5-cyanoimidazo[1,2-a]pyridin-6-yl)-2-cyclobutylvinyl)phenyl)acrylic acid]	++ (++ = a single % value ≧ 40%)
≥ 7.00	≥ 40	≤ 0.1	N#Cc1c(/C(=C(/c2ccc(F)cc2Cl)C2CCC2)c2ccc(/C=C/C(=O)O)cc2)ccc2[nH]nc(F)c12 [Example 225, (E)-3-(4-((E)-2-(2-Chloro-4-fluorophenyl)-1-(4-cyano-3-fluoro-1H-indazol-5-yl)-2-cyclobutylvinyl)phenyl)acrylic acid]	++ (++ = a single % value ≧ 40%)
≥ 7.00	≥ 40	≤ 0.1	N#Cc1ccc(/C(=C(\c2ccc(/C=C/C(=O)O)cc2)c2ccc3nccn3c2)C2CCC2)c(Cl)c1 [Example 226, (E)-3-(4-((E)-2-(2-Chloro-4-cyanophenyl)-2-cyclobutyl-1-(imidazo[1,2-a]pyridin-6-yl)vinyl)phenyl)acrylic acid]	++ (++ = a single % value ≧ 40%)
≥ 7.00	≥ 40	≤ 0.1	N#Cc1cc(Cl)ccc1/C(=C(\c1ccc(/C=C/C(=O)O)cc1)c1ccc2nccn2c1)C1CCC1 [Example 227, (E)-3-(4-((E)-2-(4-Chloro-2-cyanophenyl)-2-cyclobutyl-1-(imidazo[1,2-a]pyridin-6-yl)vinyl)phenyl)acrylic acid]	++ (++ = a single % value ≧ 40%)
≥ 7.00	≥ 40	≤ 0.1	COc1ccc(/C(=C(\c2ccc(/C=C/C(=O)O)cc2)c2ccc3nccn3c2)C2CCC2)c(Cl)c1 [Example 228, (E)-3-(4-((E)-2-(2-Chloro-4-methoxyphenyl)-2-cyclobutyl-1-(imidazo[1,2-a]pyridin-6-yl)vinyl)phenyl)acrylic acid]	++ (++ = a single % value ≧ 40%)
≥ 7.00	≥ 40	≤ 0.1	COc1ccc(/C(=C(\c2ccc(/C=C/C(=O)O)cc2)c2ccc3nccn3c2)C2CCC2)c(C)c1 [Example 229, (E)-3-(4-((E)-2-Cyclobutyl-1-(imidazo[1,2-a]pyridin-6-yl)-2-(4-methoxy-2-methylphenyl)vinyl)phenyl)acrylic acid]	++ (++ = a single % value ≧ 40%)
≥ 7.00	≥ 40	≤ 0.1	CCOc1ccc(/C(=C(\c2ccc(/C=C/C(=O)O)cc2)c2ccc3[nH]nc(F)c3c2)C2CCC2)c(Cl)c1 [Example 230, (E)-3-(4-((E)-2-(2-Chloro-4-ethoxyphenyl)-2-cyclobutyl-1-(3-fluoro-1H-indazol-5-yl)vinyl)phenyl)acrylic acid]	++ (++ = a single % value ≧ 40%)
≥ 7.00	≥ 40	≤ 0.1	O=C(O)/C=C/c1ccc(/C(=C(\c2ccc(C(F)(F)F)cc2Cl)C2CCC2)c2ccc3nccn3c2)cc1 [Example 231, (E)-3-(4-((E)-2-(2-Chloro-4-(trifluoromethyl)phenyl)-2-cyclobutyl-1-(imidazo[1,2-a]pyridin-6-yl)vinyl)phenyl)acrylic acid]	++ (++ = a single % value ≧ 40%)
≥ 7.00	≥ 40	≤ 0.1	COc1ccc(/C(=C(\c2ccc(/C=C/C(=O)O)cc2)c2ccc3scnc3c2)C2CCC2)c(Cl)c1 [Example 232, (E)-3-(4-((E)-1-(Benzo[d]thiazol-5-yl)-2-(2-chloro-4-methoxyphenyl)-2-cyclobutylvinyl)phenyl)acrylic acid]	++ (++ = a single % value ≧ 40%)
